pKi: −log10 of the molar value.
What was measured:
rat mGlu2 receptor = biological target: T1, rat mGlu2 receptor (Rattus norvegicus, UniProt P31421); assay: [3H]-LY354740 binding on mGlu2 transfected CHO cell membranes; conditions: inhibition of 10 nM [3H]-LY354740 binding, membranes of CHO cells transfected with rat mGlu2, room temperature, 1 hour
T1 construct: expressed in transfected cells; membranes prepared
Outline: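 Membranes from CHO cells stably expressing rat mGlu2 (25 μg protein/ml) incubated 1 hour at room temperature with 10 nM [3H]-LY354740 and test compound in 50 mM Tris-HCl, 2 mM MgCl2, pH 7.4. Non-specific binding defined with 10 μM DCG IV; bound radioactivity counted after filtration. IC50 from four-parameter logistic fit.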

T1 sequence (P31421 19-872): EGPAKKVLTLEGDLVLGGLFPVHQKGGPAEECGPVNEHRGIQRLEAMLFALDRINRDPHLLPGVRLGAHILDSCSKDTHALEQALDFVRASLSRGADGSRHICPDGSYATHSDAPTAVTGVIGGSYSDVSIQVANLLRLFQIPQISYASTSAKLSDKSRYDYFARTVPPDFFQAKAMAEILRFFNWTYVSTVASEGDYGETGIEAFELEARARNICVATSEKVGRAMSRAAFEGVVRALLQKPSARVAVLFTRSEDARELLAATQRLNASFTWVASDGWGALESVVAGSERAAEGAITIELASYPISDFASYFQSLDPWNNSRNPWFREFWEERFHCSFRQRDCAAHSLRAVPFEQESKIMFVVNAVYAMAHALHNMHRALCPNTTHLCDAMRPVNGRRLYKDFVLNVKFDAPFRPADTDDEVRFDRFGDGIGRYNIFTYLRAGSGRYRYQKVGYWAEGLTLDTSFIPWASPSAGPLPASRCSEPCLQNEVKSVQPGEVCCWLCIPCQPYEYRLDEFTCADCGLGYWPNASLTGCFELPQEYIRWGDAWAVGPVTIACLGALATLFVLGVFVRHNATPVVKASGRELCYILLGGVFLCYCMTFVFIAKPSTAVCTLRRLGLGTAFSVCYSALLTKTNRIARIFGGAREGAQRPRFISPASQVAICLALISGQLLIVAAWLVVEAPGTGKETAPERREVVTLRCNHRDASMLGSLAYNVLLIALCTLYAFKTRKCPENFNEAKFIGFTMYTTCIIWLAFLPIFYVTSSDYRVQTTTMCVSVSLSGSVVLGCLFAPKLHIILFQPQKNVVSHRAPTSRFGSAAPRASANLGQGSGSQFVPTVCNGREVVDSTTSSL

SMILES | melting point | pKi (rat mGlu2 receptor)
Cc1cc(-c2ccc(C(F)(F)F)cc2)cc(-c2ccnc(-c3cccc([N+](=O)[O-])c3)c2)n1 [Example 306, 6-Methyl-2′-(3-nitro-phenyl)-4-(4-trifluoromethyl-phenyl)-[2,4′]bipyridinyl] | 164 °C | 7.42
NS(=O)(=O)c1cnc(-c2cn(-c3cc(-c4ccc(C(F)(F)F)cc4)cc(C(F)(F)F)n3)cn2)s1 [Example 313, 2-{1-[6-Trifluoromethyl-4-(4-trifluoromethyl-phenyl)-pyridin-2-yl]-1H-imidazol-4-yl}-thiazole-5-sulfonic acid amide] | > 250 °C | 7.74
Cc1cc(-c2ccc(C(F)(F)F)cc2)nc(-c2ccnc(-c3ccc(S(=O)(=O)NC(C)(C)C)s3)c2)c1 [Example 320, 5-[4-Methyl-6-(4-trifluoromethyl-phenyl)-[2,4′]bipyridinyl-2′-yl]-thiophene-2-sulfonic acid tert-butylamide] | 209 °C | 7.80
Cc1cc(-c2ccc(C(F)(F)F)cc2)cc(-c2ccnc(-c3cccc(S(=O)(=O)N4CCN(C)CC4)c3)c2)n1 [Example 350, 6-Methyl-2′-[3-(4-methyl-piperazine-1-sulfonyl)-phenyl]-4-(4-trifluoromethyl-phenyl)-[2,4′]bipyridinyl] | 180 °C (dec.) | 7.66
CSc1cccc(-c2cccc(-c3cc(-c4ccc(C(F)(F)F)cc4)cc(C)n3)n2)c1 [Example 357, 6-Methyl-6′-(3-methylsulfanyl-phenyl)-4-(4-trifluoromethyl-phenyl)-[2,2′]bipyridinyl] | 144 °C | 7.41
Nc1ccc(-c2cn(-c3nc(-c4ccc(F)c(F)c4)cc(C(F)(F)F)n3)cn2)cn1 [Example 384, 5-{1-[4-(3,4-Difluoro-phenyl)-6-trifluoromethyl-pyrimidin-2-yl]-1H-imidazol-4-yl}-pyridin-2-ylamine] | 232 °C | 7.49
O=S(=O)(c1cccc(-c2cc(-c3nc(-c4ccc(C(F)(F)F)cc4)cc(C(F)(F)F)n3)ccn2)c1)N1CCCC1 [Example 390, 2-{2-[3-(Pyrrolidine-1-sulfonyl)-phenyl]-pyridin-4-yl}-4-trifluoromethyl-6-(4-trifluoromethyl-phenyl)-pyrimidine] | 184 °C | 7.68
CCOc1cc(-c2cc(C(F)(F)F)nc(-c3ccnc(-c4cccc(S(N)(=O)=O)c4)c3)n2)ccc1C(F)(F)F [Example 452, 3-{4-[4-(3-Ethoxy-4-trifluoromethyl-phenyl)-6-trifluoromethyl-pyrimidin-2-yl]-pyridin-2-yl}-benzenesulfonamide] | 223.5 °C | 7.80

Stronger by pKi (rat mGlu2 receptor), values ahead:

melting point | pKi (rat mGlu2 receptor) | SMILES
187 °C (dec.) | 7.89 | Cc1nc(-c2cn(-c3cc(C(F)(F)F)cc(-c4ccc(C(F)(F)F)cc4)n3)cn2)sc1S(N)(=O)=O [Example 294, 4-Methyl-2-{1-[4-trifluoromethyl-6-(4-trifluoromethyl-phenyl)-pyridin-2-yl]-1H-imidazol-4-yl}-thiazole-5-sulfonic acid amide]
202 °C | 8.15 | O=S(=O)(c1cccc(-c2cc(-c3nc(-c4ccc(C(F)(F)F)cc4)cc(C(F)(F)F)n3)ccn2)c1)N1CCOCC1 [Example 377, 4-(3-{4-[4-Trifluoromethyl-6-(4-trifluoromethyl-phenyl)-pyrimidin-2-yl]-pyridin-2-yl}-benzenesulfonyl)-morpholine]
217 °C | 8.30 | Cc1cc(-c2ccc(C(F)(F)F)cc2)cc(-c2ccnc(-c3ccnc(N)c3)n2)n1 [Example 360, 4-{4-[6-Methyl-4-(4-trifluoromethyl-phenyl)-pyridin-2-yl]-pyrimidin-2-yl}-pyridin-2-ylamine]
196 °C | 8.40 | Cc1cc(-c2ccc(C(F)(F)F)cc2)cc(-c2ccnc(-c3cccc(NS(C)(=O)=O)c3)c2)n1 [Example 318, N-{3-[6-Methyl-4-(4-trifluoromethyl-phenyl)-[2,4′]bipyridinyl-2′-yl]-phenyl}-methanesulfonamide]
115 °C | 8.40 | Cc1cc(-c2ccc(C(F)(F)F)cc2)cc(-c2ccnc(-c3cccc(S(=O)(=O)N4CCOCC4)c3)c2)n1 [Example 346, 6-Methyl-2′-[3-(morpholine-4-sulfonyl)-phenyl]-4-(4-trifluoromethyl-phenyl)-[2,4′]bipyridinyl]
110 °C (dec.) | 8.52 | Cc1cc(-c2ccc(C(F)(F)F)cc2)cc(-c2cccc(-c3cccc(S(C)(=O)=O)c3)c2)n1 [Example 353, 2-(3′-Methanesulfonyl-biphenyl-3-yl)-6-methyl-4-(4-trifluoromethyl-phenyl)-pyridine]
208 °C | 8.52 | NS(=O)(=O)c1cccc(-c2cccc(-c3nc(-c4ccc(F)cc4)cc(C(F)(F)F)n3)c2)c1 [Example 394, 3′-[4-(4-Fluoro-phenyl)-6-trifluoromethyl-pyrimidin-2-yl]-biphenyl-3-sulfonic acid amide]
198 °C | 8.52 | Cc1cc(-c2ccc(C(F)(F)F)cc2)cc(-c2cccc(-c3cccc(S(=O)(=O)NCC(F)(F)F)c3)n2)n1 [Example 445, 3-[6′-Methyl-4′-(4-trifluoromethyl-phenyl)-[2,2′]bipyridinyl-6-yl]-N-(2,2,2-trifluoro-ethyl)-benzenesulfonamide]
208 °C | 9.00 | Cc1cc(-c2ccc(C(F)(F)F)cc2)cc(-c2ccnc(-c3cccc(S(C)(=O)=O)c3)n2)n1 [Example 355, 2-(3-Methanesulfonyl-phenyl)-4-[6-methyl-4-(4-trifluoromethyl-phenyl)-pyridin-2-yl]-pyrimidine]
186 °C | 9.00 | Cc1cc(-c2ccc(C(F)(F)F)cc2)cc(-c2cccc(-c3cccc(S(C)(=O)=O)c3)n2)n1 [Example 356, 6′-(3-Methanesulfonyl-phenyl)-6-methyl-4-(4-trifluoromethyl-phenyl)-[2,2′]bipyridinyl]

Reference: patent publication US8183262B2, “Pyridine derivatives as mGluR2 antagonists” (Hoffmann-La Roche Inc., priority 2007, dated 2012)
